These results are taken from patent publication US6060473A, “7-azabicyclo[2.2.1]-heptane and -heptene derivatives as cholinergic receptor ligands” (priority 1996, dated 2000).

In test [1] the target is T1, acetylcholine nicotinic receptor (Rattus norvegicus, UniProt P09483+P12390).
T1 construct: rat cortex as the tissue substrate; from tissue; host or cells: rat cortex
The experiment in a line: Nicotinic receptor binding, [3H]-NMCI radioligand, rat cortex (Table 6). The procedure: 7-Aza-bicyclo[2.2.1]-heptanes and -heptenes were evaluated for their ability to bind to the acetylcholine nicotinic receptor using a standard binding assay, e.g. X. Zhang and A. Nordberg, Arch. Pharmacol., 348, 28 (1993); R. E. Middleton and J. B. Cohen, Biochemistry, 30, 6987 (1991), with nicotine sulfate as the reference compound, rat cortex as the tissue substrate, and a [^3 H]-NMCI radioligand.

Test [2] can be described thus: Tail-flick assay (Tables 7 and 8, species not stated per value). It is filed as in vivo, mice and rats. Particulars: for ED50: Mus musculus, sc, 5 min, read-out: Tail-Flick Assay ED50; for Tail-Flick Assay % Effect after 5 min: Table 7, 5 min; for Tail-Flick Assay % Effect after 5 min / Tail-Flick Assay % Effect after 60 min: head also prints ED50 (mg/kg); for Tail-Flick Assay % Effect after 60 min: Table 7, 60 min. The procedure: (§1) Female CD-1 mice (20-25 g, Charles River Labs) and male CD rats (300-400 g, Charles River Labs) were housed in groups of two and five, respectively. Animals were given food and water ad libitum. Most studies were performed using groups of 5 animals per treatment unless otherwise noted.
(§2) Antinociceptive effects (i.e., analgesia) of test compounds in mice and rats were measured by the tail-flick test using a tail-flick analgesia meter (EMDIE Instrument Co.). A maximum latency of 10 sec was imposed if no response occurred within that time. Antinociceptive activity, measured as % MPE, was calculated as [(test-control)/(10-control)×100)].
(§3) Duration of compound and (-)-nicotine-induced antinociception was assessed in mice by measuring antinociception at 2, 5, 10, 20 min after compound (20 μg/kg, s.c.) or nicotine (5 mg/kg, s.c.).
Mice (7/group) or rats were pretreated i.v. (0.9% saline or antagonist, mecamylamine, hexamethonium, atropine, naloxone or yohimbine) 10 minutes before administration of compound or nicotine at different doses. […]
In general terms: In hot-plate and tail-flick tests a longer latency is read as antinociception.

The nature of test [3]: Straub-Tail assay (Table 5). It is filed as in vivo. The source says:
A wide variety of biological assays have been used to evaluate the ability of a compound to act as an analgesic. Any of these known assays can be used to evaluate the analgesic ability of the compounds disclosed herein. The Straub-tail reaction, which is characteristic of opiate alkaloids, has been used as an assay for opiate agonists and antagonists. The assay is described in detail in Br. J. of Pharmacol. 1969, 36, 225. Another accepted assay for analgesic activity is the hot plate analgesia assay, described in J. of Pharmacol. Exp. Therap. 1953, 107, 385. An assay for the evaluation of the ability of a compound to bind to an opiate receptor is described in Mol. Pharmacol. 1974, 10, 868.
Table 5 provides the analgesic activity measured as ED50 (μg/Kg) for selected compounds disclosed herein, as determined using the Straub-Tail assay, as describe by J. Daily et al. J. Am. […] Chem. Soc. 1992, 114, 3475; T. Li, et al. Bioorganic and Medicinal Chemistry Letters 1993, 3, 2759.

In test [4] the target is T2, nicotinic cholinergic receptor (Rattus norvegicus, UniProt P09483+P12390).
T2 construct: A membrane fraction from rat brain cortex; tissue Harlan Laboratories; host or cells: rat brain cortex membranes
In words: Competition with [3H](-)-cytisine for binding to rat cortex (brain) receptors (Tables 7, 8, 9). The source says:
[^3 -H](-)-Cytisine is a nicotinic cholinergic receptor ligand that binds with high affinity to the a4b2 subtype receptor, the major subtype in rodent brain accounting for >90% of (-)-nicotine binding sites (Flores, et al., 1992; Whiting, et al., 1992). This nicotinic receptor subtype is most sensitive to (-)-nicotine compared to other receptor subtypes (Connolly, et al., (1992). Compounds that compete with cytisine for the nicotinic cholineric receptor are considered nicotine receptor agonists.
A membrane fraction from rat brain cortex (Harlan Laboratories) was prepared using an adaptation of an established method (Pabreza, et al., 1991). Compound and [^3 H]-(-)-cytisine (New England Nuclear, 42 Ci/mmol) were mixed before addition of membrane (0.5 mg protein) and incubated in glass tubes for 75 minutes on ice; total assay volume was 0.24 ml. Parallel assays to determine nonspecific binding were incubated in the presence of 10 uM (-)-nicotine (Sigma). Bound radioactivity was isolated by vacuum filtration onto glass microfiber filters (Whatman, GF-B) using millipore tubs, followed by 3×4 ml buffer wash. Filters were prerinsed with 0.5% polyethyleneimine prior to sample filtration to reduce nonspecific binding. Bound radioactivity was quantitated by scintillation counting.

Test [5] is described as follows: Tail-flick assay, rat (Table 9). In kind it is in vivo. Particulars: sc, 5 min. The procedure: as §1, §2
(§4) Mice (7/group) or rats were pretreated i.v. (0.9% saline or antagonist, mecamylamine, hexamethonium, atropine, naloxone or yohimbine) 10 minutes before administration of compound or nicotine at different doses. A control response (1.5-4 sec) was determined for each animal before treatment and test latencies were assessed at 5 minutes after compound administration (5 ml/kg, s.c.) or 2 min after nicotine (5 ml/kg, s.c.).

Test [6] is described as follows: Tail-flick assay, mouse (Table 9). It is filed as in vivo. Particulars: sc, 5 min. The procedure:
as §1, §2, §3, §4

For test [7] the following is noted: opiate antagonist naloxone; cited from earlier work.
In test [8] the test system is nicotinic cholinergic receptor. The conditions noted are these: in words; cited from earlier work.
The next test relates to a4b2 subtype receptor. The conditions noted are these: in words; cited from earlier work.
Setting [9] is: Table 7, rat brain cortex membranes, read-out: Nicotine Receptor Cytisine IC50.
Setting [10] is: Table 9, read-out: rat brain, 3H-cytisine binding IC50.

Like-named read-outs stand apart in the source and are kept apart here.

`CN1C2CCC1C(c1ccc(Cl)nc1)C2` (stereo not shown): the Inhibition % is given as 22% in test [1] (testing level 10^-9) and 5% in test [1] (testing level 10^-11).
For the compound `c1cncc(C2CC3CCC2N3)c1` (stereo not shown), the Inhibition % in test [1] (testing level 10^-9) was found to be 103%.
For `C[N+]1(C)C2CCC1C(c1ccc(Cl)nc1)C2` (stereo not shown), in [1] (testing level 10^-9), the Inhibition % came to 49%.
`N=CN1C2CCC1C(c1ccc(Cl)nc1)C2` (stereo not shown): the Inhibition % in [1] (testing level 10^-9) worked out at 49%; in test [1] (testing level 10^-11) it was 22%.
For `N=CN1C2CCC1C(c1cccnc1)C2` (stereo not shown), the Inhibition % in test [1] (testing level 10^-9) is 5%.
As to `Cc1cc(C2CC3CCC2N3)on1` (stereo not shown), the ED50 in test [2] is > 2 mg/kg.
As to `Cc1cc(C2CC3CCC2N3C)on1` (stereo not shown), the ED50 in test [2] (Table 8) was ~1 mg/kg.
On to `c1ccc2nc(C3CC4CCC3N4)ccc2c1` (stereo not shown), for which the 50% effective dose (ED50) in test [2] was > 2 mg/kg.
Regarding `Clc1ccc([C@H]2C[C@H]3CC[C@@H]2N3)cn1` (relative stereo), in test [3], the ED50 is > 0.1 mg/kg.
On to `Clc1ccc([C@@H]2C[C@H]3CC[C@@H]2N3CC2CC2)cn1` (relative stereo), for which, in test [3] (@ 1000 (μg/Kg)), the “effect at 1000 μg/Kg” value stood at 100%.
On to `C[N+]1(C)[C@@H]2CC[C@H]1[C@H](c1ccc(Cl)nc1)C2` (relative stereo), for which the ED50 in test [3] (read-out: ED50) is 0.1 to 0.2 mg/kg.
Consider `Fc1ccc([C@H]2C[C@H]3CC[C@@H]2N3)cn1` (relative stereo), for which, in test [3] (read-out: ED50), the ED50 is ~0.01 mg/kg.
Consider `N=CN1[C@@H]2CC[C@H]1[C@H](c1ccc(Cl)nc1)C2` (relative stereo), for which the “effect at 100” value in [3] (@ 100 (dose unit not given; column μg/Kg)) is recorded as 99%.
On to `Cc1nnc([C@H]2C[C@H]3CC[C@@H]2N3C)o1` (relative stereo), for which the IC50 in test [4] (setting [9]) stood at 32000 nM. In [2], the “Tail-Flick Assay % Effect after 5 min” value is listed as -2.9% and the “Tail-Flick Assay % Effect after 60 min” value is -3.6%.
Turning to `Cc1nnc([C@@H]2C[C@H]3CC[C@@H]2N3C)o1` (relative stereo), the IC50 in test [4] (setting [9]) was 150 nM. In test [2], the “Tail-Flick Assay % Effect after 5 min” value turned out to be 6.7% and the “Tail-Flick Assay % Effect after 60 min” value worked out at 24.6%.
In the case of `Cc1noc([C@@H]2C[C@H]3CC[C@@H]2N3C)n1` (relative stereo) [racemic A/B, (±)-exo-2-(3-methyl-1,2,4-oxadiazol-5-yl)-7-methyl-7-azabicyclo[2.2.1]heptane], the ED50 in [5] stood at 2.2 mg/kg; in test [6], 0.2 mg/kg. For the same compound, the IC50 in test [4] (setting [10]) worked out at 100 nM.
Take `Cc1noc([C@@H]2C[C@H]3CC[C@@H]2N3C)n1` (single isomer, unassigned) [A]: the concentration for half-maximal inhibition (IC50) in test [4] (setting [10]) worked out at 1400 nM.
The same measure, in the same setting: the same measure for `Cc1noc([C@@H]2C[C@H]3CC[C@@H]2N3C)n1` (single isomer, unassigned) [B]: 18 nM.
For the compound `Clc1ccc([C@@H]2C[C@H]3CC[C@@H]2N3)cn1` (single isomer, unassigned) [epibatidine, exo-2-(2-chloro-5-pyridyl)-7-azabicyclo [2.2.1]heptane], the “reversal of Straub-tail effect by naloxone” value in test [7] is given as “not reversed by the opiate antagonist naloxone”. For the same compound, the “nicotinic cholinergic receptor agonism” value in test [8] is listed as “nicotinic cholinergic receptor agonist”.
In the case of `Clc1ccc(C2CC3CCC2N3)cn1` (stereo not shown) [1-epibatidine], in [3], the ED50 amounted to 0.009 mg/kg.
Consider `O=c1cccc2n1C[C@@H]1CNC[C@H]2C1` [[^3 -H](-)-Cytisine], for which the “affinity to a4b2 subtype receptor” value in the test with a4b2 subtype receptor is on record as “high affinity”.
With `Clc1ccc([C@@H]2C[C@H]3CC[C@@H]2N3)cn1` [d-epibatidine], the median effective dose (ED50) in test [3] came to 0.0075 mg/kg.

In general, ED50 refers to the dose at which the effect has come halfway, by size or by number of responders. Broadly, the IC50 is the concentration that inhibits the measured activity by half.
